Reference: patent US11229618B2 (Amarin Pharmaceuticals Ireland Limited, priority 2012, dated 2022)

How the values were obtained:
[1] = AAMI 6-week study: safety and tolerability; format: in vivo, human
Method: All randomized subjects that received at least 1 dose of study medication were included in the Safety Population.
Safety evaluations were based on the safety population. Safety and tolerability were assessed in terms of AEs, vital signs, 12-lead ECG, clinical laboratory data, medical history, and study drug compliance. Safety and tolerability data were presented by treatment group.

[2] = Cross-study analysis of trough EPA concentrations in plasma and RBCs (Phase 1 PK, MARINE, ANCHOR); format: in vivo, human
Method: The objective of this Example is to examine the effects of high-purity ethyl eicosapentaenoate (“IPE”) on EPA concentrations in plasma and RBCs in response to dose and the relationship to triglyceride (“TG”) lowering across 3 clinical studies.
MARINE and ANCHOR were 12-week, phase 3, double-blind studies that randomized patients to IPE 4 g/day, 2 g/day, or placebo. MARINE randomized 229 patients with TG≥500 and ≤2000 mg/dL while ANCHOR randomized 702 high-risk patients with TG≥200 and ≤500 mg/dL despite LDL-C control while on statin therapy. IPE 4 g/day and 2 g/day were also investigated in 48 healthy subjects for 4 weeks in a phase 1 pharmacokinetic (“PK”) study. […]
In the MARINE and ANCHOR studies, the trough EPA concentrations were measured after 12 weeks of dosing with placebo, 2 g/day or 4 g/day IPE
In the Phase 1 PK study, the trough EPA concentrations were measured after 28 days of dosing with 2 or 4 g/day IPE (there was no placebo group; a value of zero is used in plots as a point of reference)
EPA concentrations were measured with a validated LC-MS/MS method in plasma and in RBCs in all 3 studies […]
Quantitation utilized linolenic acid as an internal standard and EPA as the standard for the calibration curve; for total plasma EPA and total RBC EPA, the lower limits of quantitation were 10 μg/mL and 5 μg/mL, respectively

With `CC/C=C\C/C=C\C/C=C\C/C=C\C/C=C\CCCC(=O)OCC` [IPE, all-cis eicosa-5,8,11,14,17-pentaenoic acid ethyl ester] the “TEAEs Definitely Related to the study drug” value [1] was “No TEAEs were Definitely Related”, the “deaths during the study” value [1] was “no deaths” and the “nausea Probably Related to the study drug” value ([1]; 1 g) was “One subject”. For the same molecule, the “subjects with nausea Possibly Related to the study drug” value (shortened to “subjects with nausea Possibly Related”) ([1]; 1 g cohort) was “two”, the “subjects with nausea Possibly Related” value ([1]; 2 g cohort) was “one” and the serious adverse events ([1]; 2 g treatment group) was “One SAE”. The “subjects discontinued due to TEAEs” value ([1]; 2 g treatment group) was 2 subjects, the “diarrhea Probably Related to the study drug” value ([1]; 4 g) was “Another subject” and the “subjects with nausea Possibly Related” value ([1]; 4 g cohort) was “two”. For the same molecule, the “severity and relatedness of most TEAEs” value ([1]; all groups) was “mild in severity and unrelated to study drug”, the “treatment emergent AEs (TEAEs) reported” value ([1]; ethyl-EPA treatment groups (placebo groups 34 events)) was 105 events and the “dose dependence of plasma and RBC EPA levels” value ([2]; 2 and 4 g/day groups, all 3 studies) was “linear with dose”. The “effect of demographic factors, baseline TG levels and concomitant medications on EPA concentrations in plasma and RBCs” value ([2]; MARINE and ANCHOR) was “did not affect the increase in EPA concentrations”.
